Assay results from patent US10774053B2, “HIV protease inhibitors” (Gilead Sciences, Inc., priority 2017, dated 2020).

system: HIV-1 (IIIB) in MT-4 cells; experiment: microbe, parasite or virus in culture; format: cell-based; settings: Human immunodeficiency virus 1, IIIB, MT4, MT-4 cells, HIV-1; read-out: MT4 EC50

| Compound | EC50 [µM] |
| --- | --- |
| CC(C)(C)C[C@]1(c2ccc(N3CCn4c(nnc4C(F)(F)F)C3)cc2)NC(=N)N([C@H](COC(=O)NC2(C(F)(F)F)CC2)c2ccc(Cl)c(-n3ncnc3C(F)F)c2)C1=O [Compound 326] | 0.0529 |
| CC(C)(F)C[C@]1(c2ccc(-c3cnccn3)cc2)NC(=N)N([C@H](COC(=O)NC2(C(F)(F)F)CC2)c2ccc(Cl)c(-n3ncnc3C(F)F)c2)C1=O [Compound 328] | 0.0224 |
| CC(C)(F)C[C@]1(c2ccc(-c3ncccn3)cc2)NC(=N)N([C@H](COC(=O)NC2(C(F)(F)F)CC2)c2ccc(Cl)c(-n3ncnc3C(F)F)c2)C1=O [Compound 329] | 0.023 |
| CC(C)(C)C[C@]1(c2ccc(-c3cnn(C(F)F)c3)cc2)NC(=N)N([C@H](COC(=O)N[C@H]2C[C@@H]2C(F)F)c2ccc(Cl)c(-n3ncnc3C(F)F)c2)C1=O [Compound 332] | 0.0123 |
| CC(C)(C)C[C@]1(c2ccc(-c3cnn(C(F)F)c3)cc2)NC(=N)N([C@H](COC(=O)N[C@@H]2C[C@H]2C(F)F)c2ccc(Cl)c(-n3ncnc3C(F)F)c2)C1=O [Compound 333] | 0.0105 |
| CC(C)(C)C[C@]1(c2ccc(-c3cnn(C(F)F)c3)cc2)NC(=N)N([C@H](COC(=O)N[C@@H]2C[C@H]2F)c2ccc(Cl)c(-n3ncnc3C(F)F)c2)C1=O [Compound 337] | 0.00975 |
| CC(C)(C)C[C@]1(c2ccc(-c3cnn(C(F)F)c3)cc2)NC(=N)N([C@H](COC(=O)N[C@H]2C[C@@H]2F)c2ccc(Cl)c(-n3ncnc3C(F)F)c2)C1=O [Compound 338] | 0.00994 |
| CC(C)(C)C[C@]1(c2ccc(-c3cnn(C(F)F)c3)c(F)c2)NC(=N)N([C@H](COC(=O)N[C@H]2CC2(F)F)c2ccc(Cl)c(-n3ncnc3C(F)F)c2)C1=O [Compound 340] | 0.00667 |
| CC(C)(C)C[C@]1(c2ccc(-c3cnn(C(F)F)c3)cc2)NC(=N)N([C@H](COC(=O)N[C@@H]2CC23CC3)c2ccc(Cl)c(-n3ncnc3C(F)F)c2)C1=O [Compound 341] | 0.00854 |
| CC(C)(C)C[C@]1(c2ccc(-c3cnn(C(F)F)c3)cc2)NC(=N)N([C@H](COC(=O)N[C@H]2CC23CC3)c2ccc(Cl)c(-n3ncnc3C(F)F)c2)C1=O [Compound 342] | 0.00892 |
| C[C@@H](NC(=O)OC[C@H](c1ccc(Cl)c(-n2ncnc2C(F)F)c1)N1C(=N)N[C@](CC(C)(C)C)(c2ccc(-c3cnn(C(F)F)c3)cc2)C1=O)C(F)F [Compound 343] | 0.017 |
| CC(C)(C)C[C@]1(c2ccc3nc(C4CC4)ccc3c2)NC(=N)N([C@H](COC(=O)NC2(C(F)(F)F)CC2)c2ccc(Cl)c(-n3ncnc3C(F)F)c2)C1=O [Compound 353] | 0.00859 |
| CC(C)(C)C[C@]1(c2ccc3nc(C(F)F)ccc3c2)NC(=N)N([C@H](COC(=O)NC2(C(F)(F)F)CC2)c2ccc(Cl)c(-n3ncnc3C(F)F)c2)C1=O [Compound 354] | 0.00506 |
| CC(C)(C)C[C@]1(c2ccc(-n3cnnn3)c(F)c2)NC(=N)N([C@H](COC(=O)NC2(C(F)(F)F)CC2)c2ccc(Cl)c(-n3ncnc3C(F)F)c2)C1=O [Compound 355] | 0.0246 |
| CC(C)(C)C[C@]1(c2ccc(-c3nnn(C4CC4)n3)cc2)NC(=N)N([C@H](COC(=O)NC2(C(F)(F)F)CC2)c2ccc(Cl)c(-n3ncnc3C(F)F)c2)C1=O [Compound 356] | 0.0195 |
| Cn1nnc(-c2ccc([C@@]3(CC(C)(C)C)NC(=N)N([C@H](COC(=O)NC4(C(F)(F)F)CC4)c4ccc(Cl)c(-n5ncnc5C(F)F)c4)C3=O)cc2)n1 [Compound 357] | 0.0106 |
| Cn1nnnc1-c1ccc([C@@]2(CC(C)(C)C)NC(=N)N([C@H](COC(=O)NC3(C(F)(F)F)CC3)c3ccc(Cl)c(-n4ncnc4C(F)F)c3)C2=O)cc1 [Compound 358] | 0.0762 |
| CC(C)(CC#N)C[C@]1(c2ccc(-c3cnn(C4CC4)c3)cc2)NC(=N)N([C@H](COC(=O)NC2(C(F)(F)F)CC2)c2ccc(Cl)c(-n3ncnc3C(F)F)c2)C1=O [Compound 362] | 0.0364 |
| CC(C)(C)C[C@]1(c2ccc(-c3cn(C4(C(F)(F)F)CC4)nn3)cc2)NC(=N)N([C@H](COC(=O)NC2(C(F)(F)F)CC2)c2ccc(Cl)c(-n3ncnc3C(F)F)c2)C1=O [Compound 364] | 0.0216 |
